Patent US20140135217A1, “Use of Tetracyanodithiines as Fungicides” (BASF SE, priority 2011, published 2014)

How the values were obtained:
[1] = tested on: Corynespora cassiicola; type: cell-based
[2] = tested on: Botryis cinerea; type: cell-based; details: Botrci; vs compound-free control (100%); 405 nm, 7 days after inoculation; concentration not given
[3] = tested on: Fusarium culmorum; type: cell-based
[4] = tested on: Rhizoctonia solani; type: cell-based
[5] = tested on: Phakopsora pachyrhizi; assay: Glasshouse trial: protective control of soy bean rust on soy beans; type: in vivo; details: soy bean seedlings sprayed with 1000 ppm, inoculated 1 day later, assessed after fourteen days; untreated plants 90% infected
Method: The spray solutions were prepared in several steps: The stock solution were prepared: a mixture of acetone and/or dimethylsulfoxide and the wetting agent/emulsifier Wettol, which is based on ethoxylated alkylphenoles, in a relation (volume) solvent-emulsifier of 99 to 1 was added to 25 mg of the compound to give a total of 10 ml. Water was then added to total volume of 100 ml. This stock solution was diluted with the described solvent-emulsifier-water mixture to the given concentration. Leaves of pot-grown soy bean seedlings were sprayed to run-off with an aqueous suspension, containing the concentration of active ingredient or their mixture as described below. The plants were allowed to air-dry. […] Then the plants were inoculated with spores of Phakopsora pachyrhizi. […] The extent of fungal attack on the leaves was visually assessed as % diseased leaf area.

[6] = tested on: Septoria tritici; type: cell-based
[7] = tested on: Fusarium oxysporum; type: cell-based
[8] = tested on: Rhynchosporium secalis; type: cell-based
[9] = tested on: Fusarium poae; type: cell-based
[10] = tested on: Colletotrichum truncatum; type: cell-based
[11] = tested on: Phytophthora infestans; type: cell-based; details: Phytin; pea juice-based or DDC medium; vs compound-free control (100%); 405 nm, 7 days after inoculation; concentration not given
[12] = tested on: Cochliobolus miyabeanus; assay: Microtiter test, brown spot on rice (Cochmi); type: cell-based; details: vs compound-free control (100%), 405 nm, 7 days after inoculation, concentration not given
[13] = tested on: Pyriculana oryzae; type: cell-based; details: Pyrior; vs compound-free control (100%); 405 nm, 7 days after inoculation; concentration not given
[14] = tested on: Pyrenophora teres; type: cell-based
[15] = tested on: Alternaria solani; type: cell-based
[16] = tested on: Cercospora sojina; type: cell-based
[17] = tested on: Septoria glycines; type: cell-based
[18] = tested on: Colletotrichum lagenarium; type: cell-based

Compound: N#CC1=C(C#N)SC(C#N)=C(C#N)S1 [compound I.A, 2,3,5,6-tetracyano-[1,4]dithiine]
- relative growth in % of the pathogen [1]: 1%
- relative growth in % of the pathogen [2]: 1%
- relative growth in % of the pathogen [3]: 0%
- relative growth in % of the pathogen [4]: 0%
- infection (% diseased leaf area) [5]: 4%
- relative growth in % of the pathogen [6]: 0%
- relative growth in % of the pathogen [7]: 0%
- relative growth in % of the pathogen [8]: 0%
- relative growth in % of the pathogen [9]: 0%
- relative growth in % of the pathogen [10]: 0%
- relative growth in % of the pathogen [11]: 0%
- relative growth in % of the pathogen [12]: 0%
- relative growth in % of the pathogen [13]: 0%
- relative growth in % of the pathogen [14]: 0%
- relative growth in % of the pathogen [15]: 0%
- relative growth in % of the pathogen [16]: 0%
- relative growth in % of the pathogen [17]: 0%
- relative growth in % of the pathogen [18]: 0%
